The values that follow come from paper PMC8222276 (Communications Biology, 2021).

Test [1] concerns human cardiomyocytes (HCMs). As to the kind of experiment: cell proliferation (72 h) of HCMs. The following applies: HCM. The test is classed as cell-based. Here is the method:
(§1) Data are analysed using a three-parameter non-linear regression curve or the operational model of receptor agonism. g, h Signalling bias plots were calculated as ∆Log(τ/KA) (g) or ∆∆Log(τ/KA) (h) for each agonist and for each signalling pathway. […] All data represent mean ± SEM for n repeats.
(§2) Both endothelial cell lines and HCMs were seeded at a density of 2500 cells/well in a clear flat bottom 96-well plate (Corning, UK) and incubated at 37 °C in 5% CO2. After 24 h, cells were exposed to test compounds or vehicle, in complete endothelial cell growth media (HUVECs) or myocyte growth media (HCMs). Cells were incubated for a further 72 h at 37 °C in 5% CO2. After 72 h incubation, 5 μl of Cell Counting Kit–8 (CCK-8, Sigma, UK) was added to each well and cells were then incubated for another 2 h at 37 °C in 5% CO2 and in the dark[61]. The absorbance of each well was measured using a Mithras LB940 microplate reader with an excitation of 450 nm. The absorbance is directly proportional to the number of viable cells. Cell proliferation was calculated as a percentage of number of cells treated with vehicle alone.
(§3) All sample sizes were determined, and data analysed, in accordance with the guidelines described by Curtis M et al.[65]. All experiments were appropriately controlled using ‘system pathway’ agonists. If any of these pathway controls generated inappropriate responses, then the entire data set was removed from analysis. […] Data analysis for cAMP accumulation, Ca^2+i mobilisation, NO accumulation, pERK1/2 activation, and cell proliferation assays were performed in GraphPad Prism 8.4 (GraphPad Software, San Diego). Data were fitted to obtain concentration–response curves using either the three-parameter logistic equation using to obtain values of Emax and pEC50 or the operational model of agonism. Statistical differences were analysed using one-way ANOVA followed by Dunnett’s post-hoc (for comparisons amongst more than two groups) or unpaired Student’s t test with Welch’s correction (for comparison between two groups). To account for the day-to-day variation experienced from the cultured cells, we used the maximal level of cAMP accumulation from cells in response to 100 μM forskolin stimulation was used as a reference, 10 μM ionomycin for Ca^2+i assays, 10 μM phorbol 12-myristate 13-acetate (PMA) for pERK1/2 activation, 10 μM acetylcholine for NO production and 10 μM VEGF for cell proliferation. […] Where appropriate the operational model for receptor agonism[27] was used to obtain efficacy (τ) and equilibrium disassociation constant (KA) values. In both cases, this normalisation removes the variation due to differences in days but retains the variance for control values. The means of individual experiments were combined to generate the curves shown. Having obtained values for τ and KA these were then used to quantify signalling bias as the change in Log(τ/KA)[19],[28]. Error for this composite measure was propagated by applying Eq. 1.1 PooledSEM=(SEMA)^2+(SEMB)^2 Where, SEMA and SEMB are the standard error of measurement A and B.

The target in test [2] is T1, AM1 receptor (CLR-RAMP2) in HUVECs (Homo sapiens, UniProt O60895+Q16602).
T1 construct: HUVECs specifically express the AM1 receptor alone; host or cells: primary HUVECs
T1 sequence (Q16602 23-461): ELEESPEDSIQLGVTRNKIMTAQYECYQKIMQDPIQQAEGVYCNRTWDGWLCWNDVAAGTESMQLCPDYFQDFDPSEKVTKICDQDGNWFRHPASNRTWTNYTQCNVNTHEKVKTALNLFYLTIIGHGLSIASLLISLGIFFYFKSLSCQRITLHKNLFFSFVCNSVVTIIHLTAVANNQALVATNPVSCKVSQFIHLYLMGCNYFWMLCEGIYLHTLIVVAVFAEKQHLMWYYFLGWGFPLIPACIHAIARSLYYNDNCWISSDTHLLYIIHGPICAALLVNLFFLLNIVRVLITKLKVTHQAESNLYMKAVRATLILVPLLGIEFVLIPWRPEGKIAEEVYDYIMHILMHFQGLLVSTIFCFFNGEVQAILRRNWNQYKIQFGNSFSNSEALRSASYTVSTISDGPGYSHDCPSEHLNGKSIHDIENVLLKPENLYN
T1 sequence (O60895 43-175): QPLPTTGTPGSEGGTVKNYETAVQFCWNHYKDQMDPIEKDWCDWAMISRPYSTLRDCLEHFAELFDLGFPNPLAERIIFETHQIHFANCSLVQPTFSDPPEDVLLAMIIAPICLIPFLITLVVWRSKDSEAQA
The experiment in a line: ERK1/2 phosphorylation in HUVECs. It counts as cell-based. Here is the method: Data are analysed using a three-parameter non-linear regression curve or the operational model of receptor agonism. g–h Signalling bias plots were calculated as ∆Log(τ/KA) (g) or ∆∆Log(τ/KA) (h) for each agonist and for each signalling pathway. […] Solid arrows indicate known pathways. Dashed arrows represent possible pathways.
Data are analysed using a three-parameter non-linear regression curve. All data represent mean ± SEM of n independent experiments. Statistical significance determined compared to control using an unpaired Student’s t test with Welch’s correction (*p < 0.05; **p < 0.01; ***p < 0.001).
Primary cells were grown in 6 well plates, on the day of the experiment media was replaced with serum free media 4 h prior to cell harvesting. Tyrpsin-EDTA was used to dissociate the cells and they were collected by centrifugation, counted and re-suspended HBSS/BSA (0.1%). Ligands were also diluted in HBSS/BSA. Cells were then plated on 384 well plates in 8 μl aliquots at a density of 20,000 cells/well. Next, ligands were added (4 μl) for 5 min stimulation at room temperature. Cells were then lysed as per to the manufacturer’s instructions with 4 μl of lysis buffer (Cisbio phosphor-ERK1/2 cellular assay kit, Invitrogen, UK) for 30 min shaking at room temperature. The 2 specific antibodies; were pre-mixed in a 1:1 ratio. 4 μl of this was added to each well and the plate incubated for a further 2 h. […] Antagonist studies were performed in the same way through co-stimulation with PTX (200 ng/ml), Rp-8-Br-cAMPS (100 μM), YM-254890 (100 nM), or ESI-09 (100 μM) as appropriate alongside control-treated cell.
as §3

The next test has as its system HUAECs. The experiment in a line: cell proliferation (72 h) of HUAECs. It counts as cell-based, human. The following applies: HUAEC. The method, then: as §2, §3
(1 picture or pasted object on this page, not shown here)

Test [3] deals with T2, CGRP receptor (CLR-RAMP1) in human cardiomyocytes (HCMs) (Homo sapiens, UniProt O60894+Q16602).
T2 construct: primary human cardiomyocytes (HCMs) since these cells only expressed CLR and RAMP1; host or cells: primary human cardiomyocytes (HCMs)
T2 sequence (Q16602 23-461): as the sequence (Q16602 23-461) above
T2 sequence (O60894 27-148): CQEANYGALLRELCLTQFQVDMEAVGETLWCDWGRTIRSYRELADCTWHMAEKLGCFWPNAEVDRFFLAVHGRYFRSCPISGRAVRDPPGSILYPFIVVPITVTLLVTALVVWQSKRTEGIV
The experiment in a line: cAMP accumulation in HCMs. The test is classed as cell-based. The following applies: HCM, 30 min, relative to 100 μM forskolin, mean ± SEM. The method, then: as §1
All primary cell lines were cultured as above. On the day of the experiment media was removed and cells washed with PBS, before being dissociated with Trypsin-EDTA 0.05% (Gibco, UK) and then resuspended in PBS/BSA (0.1%) (Sigma, UK). […] Plates were incubated for a further 60 min (room temperature) and then read on a plate reader (Mithras LB 940 microplate reader (Berthold technologies, Germany)). […]
All sample sizes were determined, and data analysed, in accordance with the guidelines described by Curtis M et al.[65]. […] Statistical differences were analysed using one-way ANOVA followed by Dunnett’s post-hoc (for comparisons amongst more than two groups) or unpaired Student’s t test with Welch’s correction (for comparison between two groups). […] Having obtained values for τ and KA these were then used to quantify signalling bias as the change in Log(τ/KA)[19],[28]. […]
For orientation: cAMP levels reflect the balance of adenylyl cyclase and phosphodiesterase activity.

Setting [4] is: proliferation, 72 h, CCK-8, mean ± SEM.
Setting [5] is: proliferation, 72 h, mean ± SEM of 3-6 data sets.
Setting [6] is: proliferation, operational model, mean ± SEM.
[7] abbreviates: pERK1/2, HUVEC, operational model, mean ± SEM.

With `CSCC[C@H](NC(=O)[C@H](CC(C)C)NC(=O)[C@H](CCC(N)=O)NC(=O)[C@H](Cc1c[nH]c2ccccc12)NC(=O)[C@H](CC(C)C)NC(=O)[C@H](CCCNC(=N)N)NC(=O)[C@H](Cc1c[nH]cn1)NC(=O)[C@H](CO)NC(=O)[C@H](CC(C)C)NC(=O)[C@H](CC(N)=O)NC(=O)[C@H](CCC(N)=O)NC(=O)[C@@H](NC(=O)[C@H](CCC(N)=O)NC(=O)[C@@H]1CSSC[C@H](NC(=O)CNC(=O)[C@@H](NC(=O)[C@H](CCCNC(=N)N)NC(=O)[C@H](CC(C)C)NC(=O)[C@H](CC(C)C)NC(=O)[C@H](CCC(N)=O)NC(=O)[C@H](C)NC(=O)[C@H](CCC(N)=O)NC(=O)[C@@H](N)[C@@H](C)O)C(C)C)C(=O)N[C@@H](C(C)C)C(=O)N[C@@H](CC(C)C)C(=O)NCC(=O)N[C@@H]([C@@H](C)O)C(=O)N1)C(C)C)C(=O)NCC(=O)N1CCC[C@H]1C(=O)N[C@@H](C)C(=O)NCC(=O)N[C@@H](CCCNC(=N)N)C(=O)N[C@@H](CCC(N)=O)C(=O)N[C@@H](CC(=O)O)C(=O)N[C@@H](CO)C(=O)N[C@@H](C)C(=O)N1CCC[C@H]1C(=O)N[C@H](C(=O)N[C@@H](CC(=O)O)C(=O)N1CCC[C@H]1C(=O)N[C@@H](CO)C(=O)N[C@@H](CO)C(=O)N1CCC[C@H]1C(=O)N[C@@H](Cc1c[nH]cn1)C(=O)N[C@@H](CO)C(=O)N[C@@H](Cc1ccc(O)cc1)C(N)=O)C(C)C` [AM2, adrenomedullin 2], the “Transducer coefficient Log(τ/KA)” value is 5.78±0.60 in test [1] (Growth, calculated from Table S2); 5.06±0.21 in test [2] (pERK1/2, HUVEC, calculated from Table S1); 5.81±1.89 in the test on HUAECs (Growth, calculated from Table S1). In addition, the Emax stood at 114.68±3.58% in test [1] (setting [4]), 33.3 ± 4.59% in test [2] (HUVEC) and 111.68±1.62% with HUAECs (setting [4]). Also, the pEC50 (commonly the EC50 on a negative log10 scale, so that one unit is a factor of ten) in test [1] (setting [5]) is 6.48±0.58; in the test on HUAECs (setting [5]), 6.87±0.48. Also, the logτ in test [1] (setting [6]) is -0.60±0.12; in test [2] (setting [7]), -0.35±0.08; with HUAECs (setting [6]), -1.10±0.26. Also, the pKA in test [1] (setting [6]) worked out at 6.38±0.59; in test [2] (setting [7]) it was 5.41±0.19; in the test on HUAECs (setting [6]), 6.91±1.87. Also, in test [2] (HUVEC), the “mechanism of ERK1/2 stimulation” value is recorded as “mediated in a Gi/o-dependent manner”. Besides, in test [2] (HUVEC, PTX), the “effect of PTX on ERK1/2 phosphorylation” value is “suppression of ERK1/2 phosphorylation”.

`CC[C@H](C)[C@H](NC(=O)[C@H](CCC(N)=O)NC(=O)[C@H](Cc1c[nH]cn1)NC(=O)[C@H](C)NC(=O)[C@H](CC(C)C)NC(=O)[C@H](CCCCN)NC(=O)[C@H](CCC(N)=O)NC(=O)[C@@H](NC(=O)[C@@H](NC(=O)[C@@H]1CSSC[C@H](NC(=O)CNC(=O)[C@H](Cc2ccccc2)NC(=O)[C@H](CO)NC(=O)[C@H](CCCNC(=N)N)NC(=O)[C@H](CC(C)C)NC(=O)CNC(=O)[C@H](CCC(N)=O)NC(=O)[C@H](Cc2ccccc2)NC(=O)[C@H](CC(N)=O)NC(=O)[C@H](CC(N)=O)NC(=O)[C@H](CCSC)NC(=O)[C@H](CO)NC(=O)[C@H](CCC(N)=O)NC(=O)[C@H](CCCNC(=N)N)NC(=O)[C@@H](N)Cc2ccc(O)cc2)C(=O)N[C@@H](CCCNC(=N)N)C(=O)N[C@@H](Cc2ccccc2)C(=O)NCC(=O)N[C@@H]([C@@H](C)O)C(=O)N1)[C@@H](C)O)C(C)C)C(=O)N[C@@H](Cc1ccc(O)cc1)C(=O)N[C@@H](CCC(N)=O)C(=O)N[C@@H](Cc1ccccc1)C(=O)N[C@H](C(=O)N[C@@H](CC(=O)O)C(=O)N[C@@H](CCCCN)C(=O)N[C@@H](CC(=O)O)C(=O)N[C@@H](CCCCN)C(=O)N[C@@H](CC(=O)O)C(=O)N[C@@H](CC(N)=O)C(=O)N[C@H](C(=O)N[C@@H](C)C(=O)N1CCC[C@H]1C(=O)N[C@@H](CCCNC(=N)N)C(=O)N[C@@H](CO)C(=O)N[C@@H](CCCCN)C(=O)N[C@H](C(=O)N[C@@H](CO)C(=O)N1CCC[C@H]1C(=O)N[C@@H](CCC(N)=O)C(=O)NCC(=O)N[C@@H](Cc1ccc(O)cc1)C(N)=O)[C@@H](C)CC)C(C)C)[C@@H](C)O` [AM, adrenomedullin] returned an Emax in test [3] of 63 ± 3.14%.
